Test results from patent publication US8846928B2 (Portola Pharmaceuticals, Inc., priority 2010, dated 2014).

Molecular target: T1, full length active recombinant SYK enzyme (Homo sapiens, UniProt P43405)
T1 construct: full length active recombinant SYK enzyme (Millipore, Calif.); purchased Millipore
Assay: Inhibition of Syk tyrosine phosphorylation activity (LANCE TR-FRET kinase assay)
Assay type: biochemical

Row | IC50 [nM] | SMILES
1 | 1 to 10 | Cc1cc(C)cc(Nc2nc(N[C@@H]3CCCC[C@@H]3N)c(F)cc2C(N)=O)c1 [Example 320, 6-((1R,2S)-2-aminocyclohexylamino)-2-(3,5-dimethylphenylamino)-5-fluoronicotinamide]
2 | < 1 | Cc1cc(F)cc(Nc2nc(N[C@@H]3CCCC[C@@H]3N)c(F)cc2C(N)=O)c1 [Example 321, 6-((1R,2S)-2-aminocyclohexylamino)-5-fluoro-2-(3-fluoro-5-methylphenylamino)nicotinamide]
3 | 1 to 10 | Cc1cc(Nc2nc(N[C@@H]3CCCC[C@@H]3N)c(F)cc2C(N)=O)ccc1F [Example 322, 6-((1R,2S)-2-aminocyclohexylamino)-5-fluoro-2-(4-fluoro-3-methylphenylamino)nicotinamide]
4 | 1 to 10 | Cc1ccc(Nc2nc(N[C@@H]3CCCC[C@@H]3N)c(F)cc2C(N)=O)cc1F [Example 323]
5 | 1 to 10 | NC(=O)c1cc(F)c(N[C@@H]2CCCC[C@@H]2N)nc1Nc1cc(F)cc(F)c1 [Example 324, 6-((1R,2S)-2-aminocyclohexylamino)-2-(3,5-difluorophenylamino)-5-fluoronicotinamide]
6 | 1 to 10 | NC(=O)c1cc(F)c(N[C@@H]2CCCC[C@@H]2N)nc1Nc1cc(F)cc(Cl)c1 [Example 325, 6-((1R,2S)-2-aminocyclohexylamino)-2-(3-chloro-5-fluorophenylamino)-5-fluoronicotinamide]
7 | < 1 | COc1cc(F)cc(Nc2nc(N[C@@H]3CCCC[C@@H]3N)c(F)cc2C(N)=O)c1 [Example 326, 6-((1R,2S)-2-aminocyclohexylamino)-5-fluoro-2-(3-fluoro-5-methoxyphenylamino)nicotinamide]
8 | 100 to 1000 | NC(=O)c1cc(F)c(N[C@@H]2CCCC(F)(F)[C@@H]2N)nc1Nc1cccc2ncccc12 [Example 327, 6-((1R,2R)-2-amino-3,3-difluorocyclohexylamino)-5-fluoro-2-(quinolin-5-ylamino)nicotinamide]
9 | 10 to 100 | NC(=O)c1cc(F)c(N[C@@H]2CCCC(F)(F)[C@@H]2N)nc1Nc1ccc2ncsc2c1 [Example 328, 6-((1R,2R)-2-amino-3,3-difluorocyclohexylamino)-2-(benzo[d]thiazol-6-ylamino)-5-fluoronicotinamide]
10 | 100 to 1000 | NC(=O)c1cc(F)c(N[C@@H]2CCCC(F)(F)[C@@H]2N)nc1Nc1cccc2ncsc12 [Example 329, 6-((1R,2R)-2-amino-3,3-difluorocyclohexylamino)-2-(benzo[d]thiazol-7-ylamino)-5-fluoronicotinamide]
11 | 10 to 100 | Cn1ccc2c(Nc3nc(N[C@@H]4CCCC(F)(F)[C@@H]4N)c(F)cc3C(N)=O)cccc21 [Example 330, 6-((1R,2R)-2-amino-3,3-difluorocyclohexylamino)-5-fluoro-2-(1-methyl-1H-indol-4-ylamino)nicotinamide]
12 | 10 to 100 | Cn1ccc2cc(Nc3nc(N[C@@H]4CCCC(F)(F)[C@@H]4N)c(F)cc3C(N)=O)ccc21 [Example 331, 6-((1R,2R)-2-amino-3,3-difluorocyclohexylamino)-5-fluoro-2-(1-methyl-1H-indol-5-ylamino)nicotinamide]
13 | 100 to 1000 | Cc1cncc(Nc2nc(N[C@@H]3CCCC(F)(F)[C@@H]3N)c(F)cc2C(N)=O)c1 [Example 332, 6-((1R,2R)-2-amino-3,3-difluorocyclohexylamino)-5-fluoro-2-(5-methylpyridin-3-ylamino)nicotinamide]
14 | 100 to 1000 | Cc1cc(Nc2nc(N[C@@H]3CCCC(F)(F)[C@@H]3N)c(F)cc2C(N)=O)sn1 [Example 333, 6-((1R,2R)-2-amino-3,3-difluorocyclohexylamino)-5-fluoro-2-(3-methylisothiazol-5-ylamino)nicotinamide]
15 | 100 to 1000 | Cc1ccc(Nc2nc(N[C@@H]3CCCC(F)(F)[C@@H]3N)c(F)cc2C(N)=O)cc1 [Example 334, 6-((1R,2R)-2-amino-3,3-difluorocyclohexylamino)-5-fluoro-2-(p-tolylamino)nicotinamide]
16 | 10 to 100 | Cc1cccc(Nc2nc(N[C@@H]3CCCC(F)(F)[C@@H]3N)c(F)cc2C(N)=O)c1 [Example 335, 6-((1R,2R)-2-amino-3,3-difluorocyclohexylamino)-5-fluoro-2-(m-tolylamino)nicotinamide]
17 | 100 to 1000 | NC(=O)c1cc(F)c(N[C@@H]2CCCC(F)(F)[C@@H]2N)nc1Nc1cccc(Cl)c1 [Example 336, 6-((1R,2R)-2-amino-3,3-difluorocyclohexylamino)-2-(3-chlorophenylamino)-5-fluoronicotinamide]
18 | 100 to 1000 | NC(=O)c1cc(F)c(N[C@@H]2CCCC(F)(F)[C@@H]2N)nc1Nc1cc(F)cc(F)c1 [Example 337, 6-((1R,2R)-2-amino-3,3-difluorocyclohexylamino)-2-(3,5-difluorophenylamino)-5-fluoronicotinamide]
19 | 100 to 1000 | COc1cc(F)cc(Nc2nc(N[C@@H]3CCCC(F)(F)[C@@H]3N)c(F)cc2C(N)=O)c1 [Example 338, 6-((1R,2R)-2-amino-3,3-difluorocyclohexylamino)-5-fluoro-2-(3-fluoro-5-methoxyphenylamino)nicotinamide]
20 | 10 to 100 | Cc1cc(F)cc(Nc2nc(N[C@@H]3CCCC(F)(F)[C@@H]3N)c(F)cc2C(N)=O)c1 [Example 339, 6-((1R,2R)-2-amino-3,3-difluorocyclohexylamino)-5-fluoro-2-(3-fluoro-5-methylphenylamino)nicotinamide]

Row | IC50 [nM] | SMILES
21 | 1 to 10 | NC(=O)c1cc(F)c(N[C@H]2[C@@H](N)CCCC2(F)F)nc1Nc1cccc(-n2nccn2)c1 [Example 340]
22 | 1 to 10 | NC(=O)c1cc(F)c(N[C@H]2[C@@H](N)CCCC2(F)F)nc1Nc1cccc(-n2cccn2)c1 [Example 341, 2-(3-(1H-pyrazol-1-yl)phenylamino)-6-((1S,6S)-6-amino-2,2-difluorocyclohexylamino)-5-fluoronicotinamide]
23 | 10 to 100 | NC(=O)c1cc(F)c(N[C@H]2[C@@H](N)CCCC2(F)F)nc1Nc1cccc(-c2ncccn2)c1 [Example 342, 6-((1S,6S)-6-amino-2,2-difluorocyclohexylamino)-5-fluoro-2-(3-(pyrimidin-2-yl)phenylamino)nicotinamide]
24 | 1 to 10 | NC(=O)c1cc(F)c(N[C@H]2[C@@H](N)CCCC2(F)F)nc1Nc1ccc2ncccc2c1 [Example 343, 6-((1S,6S)-6-amino-2,2-difluorocyclohexylamino)-5-fluoro-2-(quinolin-6-ylamino)nicotinamide]
25 | 1 to 10 | NC(=O)c1cc(F)c(N[C@H]2[C@@H](N)CCCC2(F)F)nc1Nc1cnc2ccccc2c1 [Example 344, 6-((1S,6S)-6-amino-2,2-difluorocyclohexylamino)-5-fluoro-2-(quinolin-3-ylamino)nicotinamide]
26 | 1 to 10 | NC(=O)c1cc(F)c(N[C@H]2[C@@H](N)CCCC2(F)F)nc1Nc1ccc2ncsc2c1 [Example 345, 6-((1S,6S)-6-amino-2,2-difluorocyclohexylamino)-2-(benzo[d]thiazol-6-ylamino)-5-fluoronicotinamide]
27 | 10 to 100 | Cc1ccc(Nc2nc(N[C@H]3[C@@H](N)CCCC3(F)F)c(F)cc2C(N)=O)cc1 [Example 346]
28 | 10 to 100 | NC(=O)c1cc(F)c(N[C@H]2[C@@H](N)CCCC2(F)F)nc1Nc1cccnc1 [Example 347, 6-((1S,6S)-6-amino-2,2-difluorocyclohexylamino)-5-fluoro-2-(pyridin-3-ylamino)nicotinamide]
29 | 10 to 100 | NC(=O)c1cc(F)c(N[C@H]2[C@@H](N)CCCC2(F)F)nc1Nc1cncc(F)c1 [Example 348]
30 | 10 to 100 | Cc1ccc(Nc2nc(N[C@@H]3CCOC[C@@H]3N)c(F)cc2C(N)=O)cc1 [Example 349, 6-((3R,4R)-3-aminotetrahydro-2H-pyran-4-ylamino)-5-fluoro-2-(p-tolylamino)nicotinamide]
31 | 10 to 100 | NC(=O)c1cc(F)c(N[C@@H]2CCNC2)nc1Nc1ccc2ncccc2c1 [Example 351, (R)-5-fluoro-6-(pyrrolidin-3-ylamino)-2-(quinolin-6-ylamino)nicotinamide]
32 | 100 to 1000 | CC[C@H](Nc1nc(Nc2cccc(C)c2)c(C(N)=O)cc1F)C1(N)CC1 [Example 369, (S)-6-(1-(1-aminocyclopropyl)propylamino)-5-fluoro-2-(m-tolylamino)nicotinamide]
33 | > 1000 | CC[C@H](Nc1nc(Nc2ccc(C)cc2)c(C(N)=O)cc1F)C1(N)CC1 [Example 370, (S)-6-(1-(1-aminocyclopropyl)propylamino)-5-fluoro-2-(p-tolylamino)nicotinamide]
34 | > 1000 | CC[C@H](Nc1nc(Nc2cccnc2)c(C(N)=O)cc1F)C1(N)CC1 [Example 371, (S)-6-(1-(1-aminocyclopropyl)propylamino)-5-fluoro-2-(pyridin-3-ylamino)nicotinamide]
35 | 10 to 100 | CC[C@@H](Nc1nc(Nc2cncc(F)c2)c(C(N)=O)cc1F)C1(N)CC1 [Example 373, (R)-6-(1-(1-aminocyclopropyl)propylamino)-5-fluoro-2-(5-fluoropyridin-3-ylamino)nicotinamide]
36 | 100 to 1000 | NC(=O)c1cc(F)c(NC2(C(N)=O)CCCC2)nc1Nc1cnc2ccccc2c1 [Example 376, 6-(1-carbamoylcyclopentylamino)-5-fluoro-2-(quinolin-3-ylamino)nicotinamide]
37 | 10 to 100 | NC(=O)c1cc(F)c(NC(CC(F)(F)F)C(N)=O)nc1Nc1cnc2ccccc2c1 (stereo not drawn) [Example 377, 6-(1-amino-4,4,4-trifluoro-1-oxobutan-2-ylamino)-5-fluoro-2-(quinolin-3-ylamino)nicotinamide]
38 | > 1000 | NC(=O)c1cc(F)c(NC2(C(N)=O)CCCCC2)nc1Nc1cnc2ccccc2c1 [Example 378, 6-(1-carbamoylcyclohexylamino)-5-fluoro-2-(quinolin-3-ylamino)nicotinamide]
39 | 100 to 1000 | NC(=O)c1cc(F)c(NC2(C(N)=O)CCC2)nc1Nc1cnc2ccccc2c1 [Example 379, 6-(1-carbamoylcyclobutylamino)-5-fluoro-2-(quinolin-3-ylamino)nicotinamide]
